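Exposure lasted 48 hours, with cells grown in 96-well plates and compounds tested at five concentrations. Here, GI50 denotes the concentration required for 50% inhibition of growth.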 Active and inactive are the calls of the source. No stated cut-off is given here; in the data, active = GI50 up to about 1.1 µM and inactive = higher.
How the values were obtained:
Test in all cases: NCI tumour cell line growth inhibition, 48 h
KM12 = test system: KM12
SNB-19 = test system: SNB-19
COLO 205 = test system: COLO 205
HOP-62 = test system: HOP-62
SF-539 = test system: SF-539
EKVX = test system: EKVX
ACHN = test system: ACHN
NCI-H460 = test system: NCI-H460
SR = test system: SR
U-251 = test system: U-251
OVCAR-3 = test system: OVCAR-3
CCRF-CEM = test system: CCRF-CEM
SK-OV-3 = test system: SK-OV-3
MOLT-4 = test system: MOLT-4
UACC-62 = test system: UACC-62

Measured: GI50

COCC(O)CN1C(N)=NC(O)C1O (stereo unspecified)
inactive: KM12 > 100 µM | SNB-19 > 100 µM | COLO 205 > 100 µM | HOP-62 > 100 µM | SF-539 > 100 µM | EKVX > 100 µM | ACHN > 100 µM | NCI-H460 > 100 µM | SR > 100 µM | U-251 > 100 µM

CCCCN1C(=O)C2c3[nH]c4ccccc4c3C3CCCCC3C2C1=O.CCCCN1C(=O)C2c3[nH]c4ccccc4c3[C@@H]3CCCCC3C2C1=O (stereo unspecified)
inactive: SNB-19 23.4 µM | COLO 205 26.7 µM | HOP-62 6.4 µM | SF-539 14.8 µM | OVCAR-3 12.4 µM | EKVX 21.4 µM | CCRF-CEM 16.4 µM | SK-OV-3 22.3 µM | ACHN 7.36 µM | MOLT-4 5.69 µM | NCI-H460 10.5 µM | UACC-62 19.1 µM | U-251 16.4 µM

Cc1ccc(NC(=O)c2cccc([N+](=O)[O-])c2O)c([N+](=O)[O-])c1
inactive: KM12 10.6 µM | SNB-19 22.4 µM | COLO 205 19.9 µM | HOP-62 20.5 µM | SF-539 14.7 µM | OVCAR-3 18.9 µM | EKVX 23.2 µM | CCRF-CEM > 100 µM | SK-OV-3 26.9 µM | ACHN 16.4 µM | MOLT-4 > 10 µM | NCI-H460 5.58 µM | UACC-62 12 µM | U-251 14.3 µM

COc1ccc2oc(-c3cc4cc(OC)ccc4o3)cc2c1
inactive: KM12 > 100 µM | SNB-19 > 100 µM | COLO 205 > 100 µM | HOP-62 > 100 µM | OVCAR-3 > 100 µM | EKVX > 100 µM | CCRF-CEM > 100 µM | SK-OV-3 > 100 µM | ACHN > 100 µM | MOLT-4 > 100 µM | NCI-H460 > 100 µM | UACC-62 > 100 µM

COc1cc(C2C(C(=O)Nc3cc(F)c(F)cc3F)=C(C)NC(C)=C2C(=O)Nc2cc(F)c(F)cc2F)ccc1O
inactive: KM12 13.3 µM | SNB-19 29.2 µM | COLO 205 30.9 µM | HOP-62 12.8 µM | SF-539 26.8 µM | OVCAR-3 14.3 µM | EKVX 14.9 µM | CCRF-CEM 14 µM | ACHN 18.8 µM | MOLT-4 11.3 µM | NCI-H460 27.3 µM | U-251 23.6 µM

COc1ccc(/C=[N+](\[O-])[C@H](COCc2ccccc2)c2ccccc2)cc1
inactive: KM12 89.1 µM | SNB-19 46.7 µM | COLO 205 84.3 µM | HOP-62 > 100 µM | SF-539 > 100 µM | OVCAR-3 44.4 µM | EKVX 30.1 µM | CCRF-CEM 35.7 µM | SK-OV-3 > 100 µM | ACHN 51.8 µM | MOLT-4 25.2 µM | NCI-H460 63.7 µM | U-251 > 100 µM

CN(CC(=O)O)S(=O)(=O)c1ccc(F)cc1
inactive: KM12 > 100 µM | SNB-19 > 100 µM | COLO 205 > 100 µM | SF-539 > 100 µM | OVCAR-3 > 100 µM | EKVX > 100 µM | CCRF-CEM > 100 µM | SK-OV-3 > 100 µM | ACHN > 100 µM | MOLT-4 > 100 µM | NCI-H460 > 100 µM | UACC-62 > 100 µM | U-251 > 100 µM

COc1ccc(-c2cc(=O)c3ccccc3o2)cc1N
inactive: KM12 29.3 µM | SNB-19 60.4 µM | COLO 205 33.4 µM | HOP-62 20.5 µM | SF-539 33.9 µM | OVCAR-3 31.8 µM | EKVX 16.4 µM | CCRF-CEM 28.6 µM | SK-OV-3 > 100 µM | ACHN 37.1 µM | MOLT-4 26.3 µM | NCI-H460 36 µM | UACC-62 25.8 µM | U-251 69.3 µM

Reference: ChEMBL document CHEMBL1201862, “PubChem BioAssay data set” (2004)
